Measurements from PubChem BioAssay AID1919001 (Molecular Pharmacology Branch, DTP, NCI, 2023).

Tested on: 699152-130-R-J1-PDC complex spheroid growth
Experiment: Anticancer human tumor 699152-130-R-J1-PDC patient-derived pancreatic carcinoma cell line growth inhibition [AhR]
Details: for IC50: curve of first compound; for viability, T/C: stronger effect = lower value
In short: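 Spheroids combined tumor cells with HUVEC endothelial cells and human MSCs as stroma. AhR antagonists were paired with standard or investigational drugs, each dosed in half-log steps down from near clinical Cmax, or from 10 microM where Cmax was unknown.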

[1] = second compound 0.1 µM, first compound 0.0316 µM
[2] = second compound 0.1 µM, first compound 0.1 µM
[3] = second compound 0.1 µM, first compound 0.316 µM
[4] = second compound 0.1 µM, first compound 1 µM
[5] = second compound 0.1 µM, first compound 3.16 µM
[6] = second compound 0.1 µM, first compound 10 µM
[7] = second compound 0.316 µM, first compound 0.0316 µM
[8] = second compound 0.316 µM, first compound 0.1 µM
[9] = second compound 0.316 µM, first compound 0.316 µM
[10] = second compound 0.316 µM, first compound 1 µM
[11] = second compound 0.316 µM, first compound 3.16 µM
[12] = second compound 0.316 µM, first compound 10 µM
[13] = second compound 1 µM, first compound 0.0316 µM
[14] = second compound 1 µM, first compound 0.1 µM
[15] = second compound 1 µM, first compound 0.316 µM
[16] = second compound 1 µM, first compound 1 µM
[17] = second compound 1 µM, first compound 3.16 µM
[18] = second compound 1 µM, first compound 10 µM
[19] = second compound 3.16 µM, first compound 0.0316 µM
[20] = second compound 3.16 µM, first compound 0.1 µM
[21] = second compound 3.16 µM, first compound 0.316 µM
[22] = second compound 3.16 µM, first compound 1 µM
[23] = second compound 3.16 µM, first compound 3.16 µM
[24] = second compound 3.16 µM, first compound 10 µM
[25] = second compound 10 µM, first compound 0.0316 µM
[26] = second compound 10 µM, first compound 0.1 µM
[27] = second compound 10 µM, first compound 0.316 µM
[28] = second compound 10 µM, first compound 1 µM
[29] = second compound 10 µM, first compound 3.16 µM
[30] = second compound 10 µM, first compound 10 µM
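Also: compound exposure lasted 7 days after spheroids had grown for 3 days.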

Compound | IC50 (second compound 0.1 µM) [nM] | IC50 (second compound 0.316 µM) [nM] | IC50 (second compound 1 µM) [nM] | IC50 (second compound 3.16 µM) [nM] | IC50 (second compound 10 µM) [nM] | viability, T/C [1] [%] | viability, T/C [2] [%] | viability, T/C [3] [%] | viability, T/C [4] [%] | viability, T/C [5] [%] | viability, T/C [6] [%] | viability, T/C [7] [%] | viability, T/C [8] [%] | viability, T/C [9] [%] | viability, T/C [10] [%] | viability, T/C [11] [%] | viability, T/C [12] [%] | viability, T/C [13] [%] | viability, T/C [14] [%] | viability, T/C [15] [%] | other results
Nc1ccn(C2OC(CO)C(O)C2(F)F)c(=O)n1 (stereo not given) + Cc1cncc(-c2nc(NCCc3c[nH]c4ccccc34)c3ncn(C(C)C)c3n2)c1 | 1240 | 1300 | 2510 | 864 | < 31.6 | 76.3 | 69.2 | 62.3 | 49.4 | 46.6 | 42.8 | 81.3 | 63.6 | 56.8 | 56.1 | 45.3 | 40.6 | 72.6 | 67.9 | 58.6 | viability, T/C [16]: 53.8%; viability, T/C [17]: 50.5%; viability, T/C [18]: 43.8%; viability, T/C [19]: 74.7%; viability, T/C [20]: 71.1%; viability, T/C [21]: 55.6%; viability, T/C [22]: 50.8%; viability, T/C [23]: 45.4%; viability, T/C [24]: 49.8%; viability, T/C [25]: 47.8%; viability, T/C [26]: 50.9%; viability, T/C [27]: 40.5%; viability, T/C [28]: 46%; viability, T/C [29]: 39.4%; viability, T/C [30]: 35.5%
O=C(C=Cc1cccc(S(=O)(=O)Nc2ccccc2)c1)NO + Cc1cncc(-c2nc(NCCc3c[nH]c4ccccc34)c3ncn(C(C)C)c3n2)c1 | > 10000 | > 10000 | > 10000 | > 10000 | < 31.6 | 110 | 96.5 | 102 | 117 | 98.8 | 91.3 | 114 | 96 | 101 | 112 | 101 | 82.8 | 112 | 120 | 121 | viability, T/C [16]: 109%; viability, T/C [17]: 96.6%; viability, T/C [18]: 87.5%; viability, T/C [19]: 108%; viability, T/C [20]: 105%; viability, T/C [21]: 109%; viability, T/C [22]: 86.4%; viability, T/C [23]: 81.8%; viability, T/C [24]: 79%; viability, T/C [25]: 27.2%; viability, T/C [26]: 20.6%; viability, T/C [27]: 21.4%; viability, T/C [28]: 19.4%; viability, T/C [29]: 17%; viability, T/C [30]: 10.1%
O=C(c1cc(Cc2n[nH]c(=O)c3ccccc23)ccc1F)N1CCN(C(=O)C2CC2)CC1 + Cc1cncc(-c2nc(NCCc3c[nH]c4ccccc34)c3ncn(C(C)C)c3n2)c1 | > 10000 | > 10000 | > 10000 | > 10000 | < 31.6 | 119 | 104 | 105 | 97.6 | 120 | 82.9 | 104 | 101 | 111 | 105 | 95.3 | 90 | 119 | 120 | 119 | viability, T/C [16]: 116%; viability, T/C [17]: 107%; viability, T/C [18]: 106%; viability, T/C [19]: 96.8%; viability, T/C [20]: 93.7%; viability, T/C [21]: 89.7%; viability, T/C [22]: 90%; viability, T/C [23]: 95.1%; viability, T/C [24]: 93.4%; viability, T/C [25]: 9.79%; viability, T/C [26]: 10.4%; viability, T/C [27]: 12.8%; viability, T/C [28]: 11.7%; viability, T/C [29]: 11.9%; viability, T/C [30]: 15.3%
